From PubChem BioAssay (NCI)
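1) Cells in 96-well plates. 2) Compound, 48 h, 5 concentrations. 3) Linear interpolation between surrounding doses. 4) Unreached endpoint = highest concentration. Definition used: TGI = concentration required for complete inhibition of growth.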

Key:
Assay in all cases: DTP human tumour cell line panel, 48 h
786-0 renal = system: 786-0 renal
A498 renal = system: A498 renal
A549 NSCLC = system: A549 NSCLC
ACHN renal = system: ACHN renal
CAKI-1 renal = system: CAKI-1 renal
CCRF-CEM leukemia = system: CCRF-CEM leukemia
COLO 205 colon = system: COLO 205 colon
DU-145 prostate = system: DU-145 prostate
EKVX NSCLC = system: EKVX NSCLC
HCC-2998 colon = system: HCC-2998 colon
HCT-116 colon = system: HCT-116 colon
HCT-15 colon = system: HCT-15 colon
HL-60(TB) leukemia = system: HL-60(TB) leukemia
HOP-62 NSCLC = system: HOP-62 NSCLC
HS 578T breast = system: HS 578T breast
HT29 colon = system: HT29 colon
IGROV1 ovarian = system: IGROV1 ovarian
K-562 leukemia = system: K-562 leukemia
KM12 colon = system: KM12 colon
LOX IMVI melanoma = system: LOX IMVI melanoma
M14 melanoma = system: M14 melanoma
MALME-3M melanoma = system: MALME-3M melanoma
MCF7 breast = system: MCF7 breast
MDA-MB-231 breast = system: MDA-MB-231 breast
MDA-MB-435 = system: MDA-MB-435
MOLT-4 leukemia = system: MOLT-4 leukemia
NCI-H226 lung = system: NCI-H226 lung
NCI-H23 lung = system: NCI-H23 lung
NCI-H460 lung = system: NCI-H460 lung
NCI-H522 lung = system: NCI-H522 lung
NCI/ADR-RES ovarian = system: NCI/ADR-RES ovarian
OVCAR-3 ovarian = system: OVCAR-3 ovarian
OVCAR-4 ovarian = system: OVCAR-4 ovarian
OVCAR-5 ovarian = system: OVCAR-5 ovarian
OVCAR-8 ovarian = system: OVCAR-8 ovarian
PC-3 prostate = system: PC-3 prostate
RPMI-8226 leukemia = system: RPMI-8226 leukemia
RXF 393 renal = system: RXF 393 renal
SF-268 CNS = system: SF-268 CNS
SF-295 CNS = system: SF-295 CNS
SF-539 CNS = system: SF-539 CNS
SK-MEL-2 melanoma = system: SK-MEL-2 melanoma
SK-MEL-28 melanoma = system: SK-MEL-28 melanoma
SK-MEL-5 melanoma = system: SK-MEL-5 melanoma
SK-OV-3 ovarian = system: SK-OV-3 ovarian
SN12C renal = system: SN12C renal
SNB-19 CNS = system: SNB-19 CNS
SNB-75 CNS = system: SNB-75 CNS
SR leukemia = system: SR leukemia
SW-620 colon = system: SW-620 colon
T-47D breast = system: T-47D breast
TK-10 renal = system: TK-10 renal
U251 CNS = system: U251 CNS
UACC-257 melanoma = system: UACC-257 melanoma
UACC-62 melanoma = system: UACC-62 melanoma
UO-31 renal = system: UO-31 renal
HOP-92 NSCLC = system: HOP-92 NSCLC

Measured: TGI

O=C1NCC2(CCN(CC3COc4ccccc4O3)CC2)N1c1ccccc1 (centres undefined)
not listed: HOP-92 NSCLC
> 100 µM: all other assays above

O=C(NC1C(=O)NC(CCc2ccccc2)NC1=O)OCc1ccccc1 (centres undefined)
not listed: HCC-2998 colon | HS 578T breast | SK-MEL-2 melanoma | SK-OV-3 ovarian
> 100 µM: all other assays above
